Data reported in PubChem BioAssay (NCI).
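Five compound concentrations were applied to cells in 96-well plates for 48 hours; endpoints were derived by simple linear interpolation of the resulting dose-response curve. Abbreviation: GI50, concentration required for 50% inhibition of growth. TGI marks complete inhibition of growth.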

Assays:
Experiment in all cases: DTP human tumour cell line panel, 48 h
786-0 renal = tested on: 786-0 renal
A498 renal = tested on: A498 renal
A549 NSCLC = tested on: A549 NSCLC
ACHN renal = tested on: ACHN renal
BT-549 breast = tested on: BT-549 breast
CAKI-1 renal = tested on: CAKI-1 renal
CCRF-CEM leukemia = tested on: CCRF-CEM leukemia
COLO 205 colon = tested on: COLO 205 colon
DU-145 prostate = tested on: DU-145 prostate
EKVX NSCLC = tested on: EKVX NSCLC
HCC-2998 colon = tested on: HCC-2998 colon
HCT-116 colon = tested on: HCT-116 colon
HCT-15 colon = tested on: HCT-15 colon
HL-60(TB) leukemia = tested on: HL-60(TB) leukemia
HOP-62 NSCLC = tested on: HOP-62 NSCLC
HOP-92 NSCLC = tested on: HOP-92 NSCLC
HS 578T breast = tested on: HS 578T breast
HT29 colon = tested on: HT29 colon
IGROV1 ovarian = tested on: IGROV1 ovarian
K-562 leukemia = tested on: K-562 leukemia
KM12 colon = tested on: KM12 colon
LOX IMVI melanoma = tested on: LOX IMVI melanoma
M14 melanoma = tested on: M14 melanoma
MALME-3M melanoma = tested on: MALME-3M melanoma
MCF7 breast = tested on: MCF7 breast
MDA-MB-231 breast = tested on: MDA-MB-231 breast
MDA-MB-435 = tested on: MDA-MB-435
MOLT-4 leukemia = tested on: MOLT-4 leukemia
NCI-H226 lung = tested on: NCI-H226 lung
NCI-H23 lung = tested on: NCI-H23 lung
NCI-H460 lung = tested on: NCI-H460 lung
NCI-H522 lung = tested on: NCI-H522 lung
NCI/ADR-RES ovarian = tested on: NCI/ADR-RES ovarian
OVCAR-4 ovarian = tested on: OVCAR-4 ovarian
OVCAR-5 ovarian = tested on: OVCAR-5 ovarian
OVCAR-8 ovarian = tested on: OVCAR-8 ovarian
PC-3 prostate = tested on: PC-3 prostate
RPMI-8226 leukemia = tested on: RPMI-8226 leukemia
RXF 393 renal = tested on: RXF 393 renal
SF-268 CNS = tested on: SF-268 CNS
SF-295 CNS = tested on: SF-295 CNS
SF-539 CNS = tested on: SF-539 CNS
SK-MEL-2 melanoma = tested on: SK-MEL-2 melanoma
SK-MEL-28 melanoma = tested on: SK-MEL-28 melanoma
SK-MEL-5 melanoma = tested on: SK-MEL-5 melanoma
SK-OV-3 ovarian = tested on: SK-OV-3 ovarian
SN12C renal = tested on: SN12C renal
SNB-19 CNS = tested on: SNB-19 CNS
SNB-75 CNS = tested on: SNB-75 CNS
SR leukemia = tested on: SR leukemia
SW-620 colon = tested on: SW-620 colon
T-47D breast = tested on: T-47D breast
TK-10 renal = tested on: TK-10 renal
U251 CNS = tested on: U251 CNS
UACC-257 melanoma = tested on: UACC-257 melanoma
UACC-62 melanoma = tested on: UACC-62 melanoma
UO-31 renal = tested on: UO-31 renal

Structure (SMILES): O=C(O)c1ccc(-n2c(=O)n(-c3cccc(C(F)(F)F)c3)c(=O)c3cc(-c4ccc(F)cc4F)ccc32)cc1
- GI50 (786-0 renal): 1.83 µM
- TGI (786-0 renal): 3.63 µM
- GI50 (A498 renal): 0.524 µM
- TGI (A498 renal): 1.87 µM
- GI50 (A549 NSCLC): 2.96 µM
- TGI (A549 NSCLC): 13.5 µM
- GI50 (ACHN renal): 2.67 µM
- TGI (ACHN renal): 10.6 µM
- GI50 (BT-549 breast): 1.54 µM
- TGI (BT-549 breast): 3.11 µM
- GI50 (CAKI-1 renal): 2.11 µM
- TGI (CAKI-1 renal): 6.96 µM
- GI50 (CCRF-CEM leukemia): 3.32 µM
- TGI (CCRF-CEM leukemia): 20.9 µM
- GI50 (COLO 205 colon): 2.85 µM
- TGI (COLO 205 colon): 7.41 µM
- GI50 (DU-145 prostate): 3.37 µM
- TGI (DU-145 prostate): 14.2 µM
- GI50 (EKVX NSCLC): 2.53 µM
- TGI (EKVX NSCLC): 8.53 µM
- GI50 (HCC-2998 colon): 3.03 µM
- TGI (HCC-2998 colon): 9.71 µM
- GI50 (HCT-116 colon): 1.1 µM
- TGI (HCT-116 colon): 2.39 µM
- GI50 (HCT-15 colon): 1.04 µM
- TGI (HCT-15 colon): 3 µM
- GI50 (HL-60(TB) leukemia): 0.323 µM
- TGI (HL-60(TB) leukemia): 11.1 µM
- GI50 (HOP-62 NSCLC): 2.04 µM
- TGI (HOP-62 NSCLC): 4.66 µM
- GI50 (HOP-92 NSCLC): 0.525 µM
- TGI (HOP-92 NSCLC): 3.54 µM
- GI50 (HS 578T breast): 2.12 µM
- TGI (HS 578T breast): 6.98 µM
- GI50 (HT29 colon): 3.58 µM
- TGI (HT29 colon): 13.7 µM
- GI50 (IGROV1 ovarian): 2.91 µM
- TGI (IGROV1 ovarian): 20.5 µM
- GI50 (K-562 leukemia): 0.335 µM
- TGI (K-562 leukemia): 7.74 µM
- GI50 (KM12 colon): 2.59 µM
- TGI (KM12 colon): 7.49 µM
- GI50 (LOX IMVI melanoma): 1.73 µM
- TGI (LOX IMVI melanoma): 3.53 µM
- GI50 (M14 melanoma): 1.58 µM
- TGI (M14 melanoma): 3.72 µM
- GI50 (MALME-3M melanoma): 1.78 µM
- TGI (MALME-3M melanoma): 5.42 µM
- GI50 (MCF7 breast): 2 µM
- TGI (MCF7 breast): 9.29 µM
- GI50 (MDA-MB-231 breast): 2.18 µM
- TGI (MDA-MB-231 breast): 6.71 µM
- GI50 (MDA-MB-435): 2.31 µM
- TGI (MDA-MB-435): 7.62 µM
- GI50 (MOLT-4 leukemia): 1.44 µM
- TGI (MOLT-4 leukemia): 6.16 µM
- GI50 (NCI-H226 lung): 1.72 µM
- TGI (NCI-H226 lung): 4.8 µM
- GI50 (NCI-H23 lung): 1.56 µM
- TGI (NCI-H23 lung): 5.88 µM
- GI50 (NCI-H460 lung): 1.58 µM
- TGI (NCI-H460 lung): 8.21 µM
- GI50 (NCI-H522 lung): 0.576 µM
- TGI (NCI-H522 lung): 3.98 µM
- GI50 (NCI/ADR-RES ovarian): 2.63 µM
- TGI (NCI/ADR-RES ovarian): 15.2 µM
- GI50 (OVCAR-4 ovarian): 2.82 µM
- TGI (OVCAR-4 ovarian): 35 µM
- GI50 (OVCAR-5 ovarian): 3.61 µM
- TGI (OVCAR-5 ovarian): 28.5 µM
- GI50 (OVCAR-8 ovarian): 2.03 µM
- TGI (OVCAR-8 ovarian): 8.43 µM
- GI50 (PC-3 prostate): 2.86 µM
- TGI (PC-3 prostate): 8.76 µM
- GI50 (RPMI-8226 leukemia): 1.7 µM
- TGI (RPMI-8226 leukemia): 7.05 µM
- GI50 (RXF 393 renal): 1.48 µM
- TGI (RXF 393 renal): 3.47 µM
- GI50 (SF-268 CNS): 2.37 µM
- TGI (SF-268 CNS): 15 µM
- GI50 (SF-295 CNS): 1.82 µM
- TGI (SF-295 CNS): 3.82 µM
- GI50 (SF-539 CNS): 2.2 µM
- TGI (SF-539 CNS): 8.17 µM
- GI50 (SK-MEL-2 melanoma): 1.04 µM
- TGI (SK-MEL-2 melanoma): 2.91 µM
- GI50 (SK-MEL-28 melanoma): 1.85 µM
- TGI (SK-MEL-28 melanoma): 6.79 µM
- GI50 (SK-MEL-5 melanoma): 0.49 µM
- TGI (SK-MEL-5 melanoma): 1.88 µM
- GI50 (SK-OV-3 ovarian): 1.45 µM
- TGI (SK-OV-3 ovarian): 4.12 µM
- GI50 (SN12C renal): 1.91 µM
- TGI (SN12C renal): 8.29 µM
- GI50 (SNB-19 CNS): 2.03 µM
- TGI (SNB-19 CNS): 31.1 µM
- GI50 (SNB-75 CNS): 1.93 µM
- TGI (SNB-75 CNS): 7.02 µM
- GI50 (SR leukemia): 0.555 µM
- TGI (SR leukemia): 4.07 µM
- GI50 (SW-620 colon): 2.03 µM
- TGI (SW-620 colon): 4.96 µM
- GI50 (T-47D breast): 1.79 µM
- TGI (T-47D breast): 6.21 µM
- GI50 (TK-10 renal): 3.86 µM
- TGI (TK-10 renal): 8.4 µM
- GI50 (U251 CNS): 2.06 µM
- TGI (U251 CNS): 10.7 µM
- GI50 (UACC-257 melanoma): 1.6 µM
- TGI (UACC-257 melanoma): 4.96 µM
- GI50 (UACC-62 melanoma): 0.582 µM
- TGI (UACC-62 melanoma): 2.51 µM
- GI50 (UO-31 renal): 2.54 µM
- TGI (UO-31 renal): 9.57 µM
